According to patent publication US20150183827A1, “CELL PENETRATING PEPTIDES & METHODS OF IDENTIFYING CELL PENETRATING PEPTIDES” (Hoffmann-La Roche Inc., priority 2012, published 2015):
* marks the point of attachment. FITC = O=C1OC2(c3ccc(O)cc3Oc3cc(O)ccc32)c2ccc(NC(=S)*)cc21; Ahx = NCCCCCC(=O)O

Tested on: H460 cells
Test: cell penetration of FITC-tagged peptides in H460 cells (confocal fluorescence imaging)
Assay type: cell-based
Settings: 3 μm, 2 hours, FIGS. 3A-3B
Method: The peptides of Examples 1-19 were tested for cell penetration in H460 and HeLa cell lines as follows.
The H460 cell line and HeLa (ATCC) were maintained in growth media then passaged every 2-3 days. Growth media for H460 was RPMI 1640, 10% fetal calf serum, sodium pyruvate, antibiotics and glutamine (GIBCO). Growth media for HeLa cells was DMEM supplemented with 10% heat-inactivated fetal calf serum, antibiotics and glutamine (GIBCO).
Cells were plated onto Whatman glass-bottom 96-well plates or Perkin Elmer glass-bottom 96-well plates and cultured overnight. Peptide stocks were prepared in DMSO and were diluted in cell growth media for cellular uptake studies. After 2 and 24 h of peptide incubation at various concentrations, media was removed followed by three washes of acidic saline. Formaldehyde fixation, with or without Hoechst 33342 dye solution (to stain nuclei), was followed by PBS washes. Plates were imaged on the Operetta High Content Imaging system in confocal fluorescence mode using the 40×water immersion high NA objective.

“FITC-6Ahx-KVFSPKKKMEFFLLF-NH2 ({FITC-Ahx}-KVFSPKKKMEFFLLF-NH2; SMILES CSCC[C@H](NC(=O)[C@H](CCCCN)NC(=O)[C@H](CCCCN)NC(=O)[C@H](CCCCN)NC(=O)[C@@H]1CCCN1C(=O)[C@H](CO)NC(=O)[C@H](Cc1ccccc1)NC(=O)[C@@H](NC(=O)[C@H](CCCCN)NC(=O)CCCCCNC(=S)Nc1ccc2c(c1)C(=O)OC21c2ccc(O)cc2Oc2cc(O)ccc21)C(C)C)C(=O)N[C@@H](CCC(=O)O)C(=O)N[C@@H](Cc1ccccc1)C(=O)N[C@@H](Cc1ccccc1)C(=O)N[C@@H](CC(C)C)C(=O)N[C@@H](CC(C)C)C(=O)N[C@@H](Cc1ccccc1)C(N)=O) [Example 12]” was tested, and the “cell penetration as determined by the fluorescence” value (shortened to “cell penetration as determined”) was “low but still cell penetrating”.
For “FITC-6Ahx-MRMIRFRKKIPYLRY-NH2 ({FITC-Ahx}-MRMIRFRKKIPYLRY-NH2; SMILES CC[C@H](C)[C@H](NC(=O)[C@H](CCSC)NC(=O)[C@H](CCCNC(=N)N)NC(=O)[C@H](CCSC)NC(=O)CCCCCNC(=S)Nc1ccc2c(c1)C(=O)OC21c2ccc(O)cc2Oc2cc(O)ccc21)C(=O)N[C@@H](CCCNC(=N)N)C(=O)N[C@@H](Cc1ccccc1)C(=O)N[C@@H](CCCNC(=N)N)C(=O)N[C@@H](CCCCN)C(=O)N[C@@H](CCCCN)C(=O)N[C@H](C(=O)N1CCC[C@H]1C(=O)N[C@@H](Cc1ccc(O)cc1)C(=O)N[C@@H](CC(C)C)C(=O)N[C@@H](CCCNC(=N)N)C(=O)N[C@@H](Cc1ccc(O)cc1)C(N)=O)[C@@H](C)CC) [Example 14]”, the “cell penetration as determined” value was “low but still cell penetrating”.
For “FITC-6Ahx-LLPQWPRIRHIKLLR-NH2 ({FITC-Ahx}-LLPQWPRIRHIKLLR-NH2; SMILES CC[C@H](C)[C@H](NC(=O)[C@H](Cc1c[nH]cn1)NC(=O)[C@H](CCCNC(=N)N)NC(=O)[C@@H](NC(=O)[C@H](CCCNC(=N)N)NC(=O)[C@@H]1CCCN1C(=O)[C@H](Cc1c[nH]c2ccccc12)NC(=O)[C@H](CCC(N)=O)NC(=O)[C@@H]1CCCN1C(=O)[C@H](CC(C)C)NC(=O)[C@H](CC(C)C)NC(=O)CCCCCNC(=S)Nc1ccc2c(c1)C(=O)OC21c2ccc(O)cc2Oc2cc(O)ccc21)[C@@H](C)CC)C(=O)N[C@@H](CCCCN)C(=O)N[C@@H](CC(C)C)C(=O)N[C@@H](CC(C)C)C(=O)N[C@@H](CCCNC(=N)N)C(N)=O) [Example 19]”, the “cell penetration as determined” value was “low but still cell penetrating”.
With “FITC-6Ahx-VKIWFQNRRVRWRKR-NH2 ({FITC-Ahx}-VKIWFQNRRVRWRKR-NH2; SMILES CC[C@H](C)[C@H](NC(=O)[C@H](CCCCN)NC(=O)[C@@H](NC(=O)CCCCCNC(=S)Nc1ccc2c(c1)C(=O)OC21c2ccc(O)cc2Oc2cc(O)ccc21)C(C)C)C(=O)N[C@@H](Cc1c[nH]c2ccccc12)C(=O)N[C@@H](Cc1ccccc1)C(=O)N[C@@H](CCC(N)=O)C(=O)N[C@@H](CC(N)=O)C(=O)N[C@@H](CCCNC(=N)N)C(=O)N[C@@H](CCCNC(=N)N)C(=O)N[C@H](C(=O)N[C@@H](CCCNC(=N)N)C(=O)N[C@@H](Cc1c[nH]c2ccccc12)C(=O)N[C@@H](CCCNC(=N)N)C(=O)N[C@@H](CCCCN)C(=O)N[C@@H](CCCNC(=N)N)C(N)=O)C(C)C) [Example 13]” the “cell penetration as determined” value was “medium”.
